The supplement of paper PMC10307832

Legend:
Assay in all cases: relative viability (nuclei count vs DMSO), 5 days (fraction); higher = more cells survive
[1] = compound: O=C(CCCCCCNC(=O)c1cnc(N(c2ccccc2)c2ccccc2)nc1)NO [Ricolinostat] + CC(=O)Nc1cccc(-n2c(=O)n(C3CC3)c(=O)c3c(Nc4ccc(I)cc4F)n(C)c(=O)c(C)c32)c1 [Trametinib] (partner 0.02 µM)
In short: (§1)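 Relative viability equals treated-well nuclei counts divided by vehicle-well nuclei counts. Counts came from 4× images of lung cancer cell lines grown in 1536-well plates for 5 days after pin-tool dosing on the day after seeding. Dosing used one drug alone or a fixed anchor-drug dose plus five library-drug doses (not always all listed) in √10 steps, and values are medians of duplicate plates.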

Ricolinostat + AZD7762 = compound: O=C(CCCCCCNC(=O)c1cnc(N(c2ccccc2)c2ccccc2)nc1)NO [Ricolinostat] + NC(=O)Nc1cc(-c2cccc(F)c2)sc1C(=O)N[C@H]1CCCNC1 [AZD7762] (partner 0.2 µM)
In short: as §1

[2] = compound: O=C(CCCCCCNC(=O)c1cnc(N(c2ccccc2)c2ccccc2)nc1)NO [Ricolinostat] + CC(=O)c1c(C)c2cnc(Nc3ccc(N4CCNCC4)cn3)nc2n(C2CCCC2)c1=O [Palbociclib] (partner 0.5 µM)
In short: as §1

[3] = compound: C1=CC=C(C(=C1)C2=CC=C(C=C2)C3=CSC4=C3C(=C(C(=O)N4)C#N)O)O + CS(=O)(=O)N1CCN(Cc2cc3nc(-c4cccc5[nH]ncc45)nc(N4CCOCC4)c3s2)CC1 [Pictilisib] (partner 1 µM)
In short: as §1

## NCI-H3122
[1]; first compound 0.08 µM
  relative viability: 0.221
[1]; first compound 0.253 µM
  relative viability: 0.256
[1]; first compound 0.8 µM
  relative viability: 0.248
[1]; first compound 2.53 µM
  relative viability: 0.313
Ricolinostat + AZD7762; first compound 0.08 µM
  relative viability: 0.838
Ricolinostat + AZD7762; first compound 0.253 µM
  relative viability: 1.03
Ricolinostat + AZD7762; first compound 0.8 µM
  relative viability: 1.01
Ricolinostat + AZD7762; first compound 2.53 µM
  relative viability: 1.12
[2]; first compound 0.08 µM
  relative viability: 0.149
[2]; first compound 0.253 µM
  relative viability: 0.208
[2]; first compound 0.8 µM
  relative viability: 0.186
[2]; first compound 2.53 µM
  relative viability: 0.235
[3]; first compound 0.08 µM
  relative viability: 0.6
[3]; first compound 0.253 µM
  relative viability: 0.666
[3]; first compound 0.8 µM
  relative viability: 0.676
[3]; first compound 2.53 µM
  relative viability: 0.682
[3]; first compound 8 µM
  relative viability: 0.662

## LC-2-ad
[1]; first compound 0.08 µM
  relative viability: 0.899
[1]; first compound 0.253 µM
  relative viability: 0.911
[1]; first compound 0.8 µM
  relative viability: 0.907
[1]; first compound 2.53 µM
  relative viability: 0.836
Ricolinostat + AZD7762; first compound 0.08 µM
  relative viability: 0.842
Ricolinostat + AZD7762; first compound 0.253 µM
  relative viability: 0.883
Ricolinostat + AZD7762; first compound 0.8 µM
  relative viability: 0.82
Ricolinostat + AZD7762; first compound 2.53 µM
  relative viability: 0.745
[2]; first compound 0.08 µM
  relative viability: 0.52
[2]; first compound 0.253 µM
  relative viability: 0.418
[2]; first compound 0.8 µM
  relative viability: 0.465
[2]; first compound 2.53 µM
  relative viability: 0.488
[3]; first compound 0.08 µM
  relative viability: 0.42
[3]; first compound 0.253 µM
  relative viability: 0.537
[3]; first compound 0.8 µM
  relative viability: 0.374
[3]; first compound 2.53 µM
  relative viability: 0.473
[3]; first compound 8 µM
  relative viability: 0.355

## NCI-H1734
[1]; first compound 0.08 µM
  relative viability: 0.582
[1]; first compound 0.253 µM
  relative viability: 0.629
[1]; first compound 0.8 µM
  relative viability: 0.682
[1]; first compound 2.53 µM
  relative viability: 0.785
Ricolinostat + AZD7762; first compound 0.08 µM
  relative viability: 0.45
Ricolinostat + AZD7762; first compound 0.253 µM
  relative viability: 0.68
Ricolinostat + AZD7762; first compound 0.8 µM
  relative viability: 0.372
Ricolinostat + AZD7762; first compound 2.53 µM
  relative viability: 0.235
[2]; first compound 0.08 µM
  relative viability: 0.343
[2]; first compound 0.253 µM
  relative viability: 0.35
[2]; first compound 0.8 µM
  relative viability: 0.4
[2]; first compound 2.53 µM
  relative viability: 0.389
[3]; first compound 0.08 µM
  relative viability: 0.46
[3]; first compound 0.253 µM
  relative viability: 0.485
[3]; first compound 0.8 µM
  relative viability: 0.444
[3]; first compound 2.53 µM
  relative viability: 0.477
[3]; first compound 8 µM
  relative viability: 0.493

## NCI-H1975
[1]; first compound 0.08 µM
  relative viability: 0.374
[1]; first compound 0.253 µM
  relative viability: 0.368
[1]; first compound 0.8 µM
  relative viability: 0.33
[1]; first compound 2.53 µM
  relative viability: 0.326
Ricolinostat + AZD7762; first compound 0.08 µM
  relative viability: 0.66
Ricolinostat + AZD7762; first compound 0.253 µM
  relative viability: 0.768
Ricolinostat + AZD7762; first compound 0.8 µM
  relative viability: 0.592
Ricolinostat + AZD7762; first compound 2.53 µM
  relative viability: 0.705
[2]; first compound 0.08 µM
  relative viability: 0.709
[2]; first compound 0.253 µM
  relative viability: 0.607
[2]; first compound 0.8 µM
  relative viability: 0.607
[2]; first compound 2.53 µM
  relative viability: 0.471
[3]; first compound 0.08 µM
  relative viability: 0.272
[3]; first compound 0.253 µM
  relative viability: 0.308
[3]; first compound 0.8 µM
  relative viability: 0.231
[3]; first compound 2.53 µM
  relative viability: 0.271
[3]; first compound 8 µM
  relative viability: 0.264

## NCI-H1793
[1]; first compound 0.08 µM
  relative viability: 0.327
[1]; first compound 0.253 µM
  relative viability: 0.389
[1]; first compound 0.8 µM
  relative viability: 0.435
[1]; first compound 2.53 µM
  relative viability: 0.444
Ricolinostat + AZD7762; first compound 0.08 µM
  relative viability: 0.387
Ricolinostat + AZD7762; first compound 0.253 µM
  relative viability: 0.414
Ricolinostat + AZD7762; first compound 0.8 µM
  relative viability: 0.314
Ricolinostat + AZD7762; first compound 2.53 µM
  relative viability: 0.206
[2]; first compound 0.08 µM
  relative viability: 0.306
[2]; first compound 0.253 µM
  relative viability: 0.31
[2]; first compound 0.8 µM
  relative viability: 0.281
[2]; first compound 2.53 µM
  relative viability: 0.329
[3]; first compound 0.08 µM
  relative viability: 0.379
[3]; first compound 0.253 µM
  relative viability: 0.352
[3]; first compound 0.8 µM
  relative viability: 0.269
[3]; first compound 2.53 µM
  relative viability: 0.312
[3]; first compound 8 µM
  relative viability: 0.242

## NCI-H1651
[1]; first compound 0.08 µM
  relative viability: 0.768
[1]; first compound 0.253 µM
  relative viability: 0.794
[1]; first compound 0.8 µM
  relative viability: 0.83
[1]; first compound 2.53 µM
  relative viability: 0.835
Ricolinostat + AZD7762; first compound 0.08 µM
  relative viability: 0.429
Ricolinostat + AZD7762; first compound 0.253 µM
  relative viability: 0.485
Ricolinostat + AZD7762; first compound 0.8 µM
  relative viability: 0.367
Ricolinostat + AZD7762; first compound 2.53 µM
  relative viability: 0.302
[2]; first compound 0.08 µM
  relative viability: 0.499
[2]; first compound 0.253 µM
  relative viability: 0.512
[2]; first compound 0.8 µM
  relative viability: 0.512
[2]; first compound 2.53 µM
  relative viability: 0.542
[3]; first compound 0.08 µM
  relative viability: 0.361
[3]; first compound 0.253 µM
  relative viability: 0.61
[3]; first compound 0.8 µM
  relative viability: 0.636
[3]; first compound 2.53 µM
  relative viability: 0.565
[3]; first compound 8 µM
  relative viability: 0.568

## NCI-H1437
[1]; first compound 0.08 µM
  relative viability: 0.458
[1]; first compound 0.253 µM
  relative viability: 0.502
[1]; first compound 0.8 µM
  relative viability: 0.392
[1]; first compound 2.53 µM
  relative viability: 0.356
Ricolinostat + AZD7762; first compound 0.08 µM
  relative viability: 1.12
Ricolinostat + AZD7762; first compound 0.253 µM
  relative viability: 0.977
Ricolinostat + AZD7762; first compound 0.8 µM
  relative viability: 1.16
Ricolinostat + AZD7762; first compound 2.53 µM
  relative viability: 1.01
[2]; first compound 0.08 µM
  relative viability: 0.357
[2]; first compound 0.253 µM
  relative viability: 0.311
[2]; first compound 0.8 µM
  relative viability: 0.282
[2]; first compound 2.53 µM
  relative viability: 0.227
[3]; first compound 0.08 µM
  relative viability: 0.42
[3]; first compound 0.253 µM
  relative viability: 0.475
[3]; first compound 0.8 µM
  relative viability: 0.39
[3]; first compound 2.53 µM
  relative viability: 0.459
[3]; first compound 8 µM
  relative viability: 0.494

## NCI-H647
[1]; first compound 0.08 µM
  relative viability: 0.372
[1]; first compound 0.253 µM
  relative viability: 0.464
[1]; first compound 0.8 µM
  relative viability: 0.51
[1]; first compound 2.53 µM
  relative viability: 0.564
Ricolinostat + AZD7762; first compound 0.08 µM
  relative viability: 0.35
Ricolinostat + AZD7762; first compound 0.253 µM
  relative viability: 0.359
Ricolinostat + AZD7762; first compound 0.8 µM
  relative viability: 0.322
Ricolinostat + AZD7762; first compound 2.53 µM
  relative viability: 0.241
[2]; first compound 0.08 µM
  relative viability: 0.391
[2]; first compound 0.253 µM
  relative viability: 0.338
[2]; first compound 0.8 µM
  relative viability: 0.407
[2]; first compound 2.53 µM
  relative viability: 0.266
[3]; first compound 0.08 µM
  relative viability: 0.226
[3]; first compound 0.253 µM
  relative viability: 0.449
[3]; first compound 0.8 µM
  relative viability: 0.515
[3]; first compound 2.53 µM
  relative viability: 0.377
[3]; first compound 8 µM
  relative viability: 0.389

## LK-2
[1]; first compound 0.08 µM
  relative viability: 0.756
[1]; first compound 0.253 µM
  relative viability: 1.04
[1]; first compound 0.8 µM
  relative viability: 0.817
[1]; first compound 2.53 µM
  relative viability: 0.718
Ricolinostat + AZD7762; first compound 0.08 µM
  relative viability: 0.254
Ricolinostat + AZD7762; first compound 0.253 µM
  relative viability: 0.375
Ricolinostat + AZD7762; first compound 0.8 µM
  relative viability: 0.38
Ricolinostat + AZD7762; first compound 2.53 µM
  relative viability: 0.348
[2]; first compound 0.08 µM
  relative viability: 0.774
[2]; first compound 0.253 µM
  relative viability: 0.548
[2]; first compound 0.8 µM
  relative viability: 0.599
[2]; first compound 2.53 µM
  relative viability: 0.605
[3]; first compound 0.8 µM
  relative viability: 0.507
[3]; first compound 2.53 µM
  relative viability: 0.656
[3]; first compound 8 µM
  relative viability: 0.514
